Where “and” joins values, the source holds several entries; their conditions need not be identical. Equal entries are not always repeated.
Test system: cellular gene expression in HeLa rtTA HIV∆Mls cells
Conditions: 9147791-treated cells, replicates

In the case of `Cc1cc(NCc2cccnc2)n2ncc(-c3ccc(Cl)cc3)c2n1` [Compound 791, 3-(4-chlorophenyl)-5-methyl-N-(3-pyridinylmethyl)pyrazolo[1,5-a]pyrimidin-7-amine], the ACTN1 expression level is reported as 70.54 and 65.87, the ADI1 expression level is reported as 21.28 and 20.50 and the AGPAT2 expression level is reported as 26.74 and 28.83. The ALDOC expression level was 1.08 and 1.02, the ANXA5 expression level was 191.66 and 185.16 and the ANXA6 expression level was 69.55 and 59.50. The AP2M1 expression level was 238.02 and 237.30, the APOBEC3B expression level was 8.21 and 6.81 and the ARF1 expression level was 151.10 and 145.27. For the same compound, the ARHGAP11A expression level was 26.24 and 25.64, the ARPC5 expression level was 71.19 and 65.59 and the ATP6V0A1 expression level was 15.83 and 16.80. For the same compound, the ATP8B1 expression level was 0.78 and 0.65, the B3GNT1 expression level was 9.03 and 9.24 and the BAT3 expression level was 82.22 and 79.10. The BCOR expression level was 21.09 and 21.93, the BCORL1 expression level was 5.39 and 5.54 and the BHLHB9 expression level was 1.05 and 1.03. For the same compound, the BMPR1B expression level was 0.73 and 0.81, the BST2 expression level was 245.44 and 203.71 and the C1orf115 expression level was 6.22 and 6.65. The C3orf59 expression level was 1.02 and 1.00, the C5orf13 expression level was 10.12 and 9.25 and the C5orf15 expression level was 25.66 and 24.81. For the same compound, the C6orf145 expression level was 25.69 and 26.94, the C9orf3 expression level was 5.07 and 4.02 and the C9orf163 expression level was 0.72 and 0.74. The C10orf76 expression level was 6.17 and 6.53, the C10orf114 expression level was 6.12 and 7.21 and the C14orf147 expression level was 24.04 and 21.03. The C19orf28 expression level was 20.85 and 20.05, the C20orf29 expression level was 8.83 and 7.98 and the CALD1 expression level was 28.16 and 24.92. For the same compound, the CAP2 expression level was 6.21 and 6.88, the CAPN1 expression level was 47.66 and 45.36 and the CASC5 expression level was 8.52 and 8.14. The CAV2 expression level was 13.23 and 12.84, the CCDC85C expression level was 13.99 and 13.05 and the CCDC99 expression level was 61.28 and 55.39. The CCDC102A expression level was 2.18 and 1.83, the CCDC150 expression level was 3.18 and 3.23 and the CD276 expression level was 44.64 and 46.66. For the same compound, the CDC42EP3 expression level was 3.11 and 2.92, the CDK1 expression level was 61.18 and 65.43 and the CDKL1 expression level was 6.48 and 6.73. For the same compound, the CDKN2C expression level was 30.46 and 26.27, the CGN expression level was 1.21 and 1.38 and the CHN1 expression level was 6.56 and 6.26. The CLPTM1L expression level was 137.08 and 134.64, the CNN2 expression level was 47.78 and 46.33 and the CNNM3 expression level was 10.75 and 11.30. For the same compound, the COMMD1 expression level was 12.70 and 12.99, the CRTC3 expression level was 31.32 and 28.75 and the CSRP2 expression level was 30.49 and 33.02. The CTNND1 expression level was 21.98 and 23.56, the CTTNBP2 expression level was 2.16 and 2.53 and the CYTH3 expression level was 13.78 and 13.70. For the same compound, the DAB2 expression level was 15.91 and 16.84, the DAG1 expression level was 27.42 and 30.65 and the DBF4B expression level was 6.80 and 6.36. The DCAF6 expression level was 12.78 and 12.38, the DDR1 expression level was 23.20 and 20.76 and the DNMT3L expression level was 1.04 and 0.90. For the same compound, the DOCK1 expression level was 11.83 and 12.65, the DOCK8 expression level was 1.41 and 1.38 and the DUSP1 expression level was 278.63 and 269.45. The DUSP8 expression level was 0.79 and 0.93, the ECT2 expression level was 33.55 and 30.42 and the EMP2 expression level was 8.82 and 9.39. For the same compound, the EPB41L4A expression level was 4.70 and 5.12, the ERCC2 expression level was 21.00 and 19.80 and the ESAM expression level was 3.07 and 3.33. The ESYT2 expression level was 32.11 and 32.37, the F2R expression level was 28.45 and 29.47 and the FAM13B expression level was 9.53 and 8.84. The FAM83D expression level was 34.40 and 31.73, the FAM127A expression level was 137.05 and 133.03 and the FARP1 expression level was 32.38 and 34.32. For the same compound, the FBXL2 expression level was 3.80 and 3.59, the FDFT1 expression level was 43.70 and 46.85 and the FGFR3 expression level was 5.45 and 6.20. For the same compound, the FSTL1 expression level was 31.24 and 29.61, the FUBP1 expression level was 41.68 and 44.21 and the FZR1 expression level was 11.76 and 10.90. For the same compound, the GALNT2 expression level was 52.29 and 59.07, the GATSL1 expression level was 3.56 and 3.66 and the GLCCI1 expression level was 5.50 and 5.98. For the same compound, the GLI2 expression level was 1.61 and 1.91, the GNG10 expression level was 35.68 and 34.10 and the GPR176 expression level was 6.89 and 6.58. The GTF3C1 expression level was 29.06 and 29.38, the H3F3A expression level was 242.14 and 260.31 and the HACL1 expression level was 8.70 and 8.40. The HDAC1 expression level was 74.08 and 73.05, the HEG1 expression level was 6.29 and 6.77 and the HIST1H3B expression level was 1.94 and 1.96. The HMGB3 expression level was 28.50 and 26.71, the HMGN3 expression level was 74.54 and 69.90 and the HNRNPH2 expression level was 55.22 and 51.55. The HSPB8 expression level was 24.33 and 26.14, the ICK expression level was 4.87 and 5.19 and the ID3 expression level was 119.77 and 102.82. For the same compound, the IDH2 expression level was 17.89 and 18.64, the IDI1 expression level was 13.51 and 16.55 and the IKBIP expression level was 8.02 and 8.05. For the same compound, the INCENP expression level was 24.44 and 25.00, the INO80C expression level was 1.90 and 1.87 and the JUB expression level was 13.13 and 12.45. For the same compound, the KANK2 expression level was 20.68 and 20.72, the KHDRBS1 expression level was 80.26 and 74.92 and the KIF3B expression level was 14.85 and 14.03. For the same compound, the KIF5C expression level was 0.60 and 0.55, the KIF11 expression level was 24.10 and 21.47 and the KIF18B expression level was 12.16 and 12.54. The KIF20B expression level was 12.24 and 11.00, the KIFC1 expression level was 47.71 and 45.30 and the KITLG expression level was 11.50 and 12.57. For the same compound, the KLF9 expression level was 12.26 and 10.78, the KLHDC3 expression level was 56.38 and 53.87 and the KPNA2 expression level was 179.32 and 162.46. The LAPTM4B expression level was 71.83 and 68.84, the LMO7 expression level was 19.87 and 20.69 and the LRRC16A expression level was 6.80 and 7.88. For the same compound, the MAML2 expression level was 2.44 and 2.29, the MANF expression level was 42.22 and 45.27 and the MAP3K14 expression level was 8.59 and 8.30.
